Source: ChEMBL document CHEMBL2429821, “A Casein kinase 1/Checkpoint kinase 1 pyrazolo-pyridine protein kinase inhibitor as novel activator of the p53 pathway” (Bioorg Med Chem Lett, 2013)

Tests used:
[1] = target: T1, Serine/threonine-protein kinase Chk1 (Homo sapiens) (UniProt O14757); test: Inhibition of human CHK1 assessed as residual activity at 10 uM relative to control
T1 sequence (whole entry): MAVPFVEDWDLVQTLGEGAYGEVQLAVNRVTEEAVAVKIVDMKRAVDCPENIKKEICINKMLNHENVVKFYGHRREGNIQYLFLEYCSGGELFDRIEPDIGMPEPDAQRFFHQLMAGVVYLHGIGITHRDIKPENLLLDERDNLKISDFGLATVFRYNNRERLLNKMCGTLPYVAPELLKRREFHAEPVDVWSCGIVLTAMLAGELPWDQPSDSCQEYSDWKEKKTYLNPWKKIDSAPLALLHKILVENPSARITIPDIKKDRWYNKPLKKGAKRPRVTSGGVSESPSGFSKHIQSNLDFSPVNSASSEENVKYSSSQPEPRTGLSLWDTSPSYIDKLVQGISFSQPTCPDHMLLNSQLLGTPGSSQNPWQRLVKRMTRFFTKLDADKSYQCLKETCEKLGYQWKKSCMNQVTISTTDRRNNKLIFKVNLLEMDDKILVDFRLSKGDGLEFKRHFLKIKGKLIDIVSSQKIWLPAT

[2] = target: T2, Protein kinase C zeta type (Homo sapiens) (UniProt Q05513); test: Inhibition of human PKCzeta assessed as residual activity at 10 uM relative to control
T2 sequence (whole entry): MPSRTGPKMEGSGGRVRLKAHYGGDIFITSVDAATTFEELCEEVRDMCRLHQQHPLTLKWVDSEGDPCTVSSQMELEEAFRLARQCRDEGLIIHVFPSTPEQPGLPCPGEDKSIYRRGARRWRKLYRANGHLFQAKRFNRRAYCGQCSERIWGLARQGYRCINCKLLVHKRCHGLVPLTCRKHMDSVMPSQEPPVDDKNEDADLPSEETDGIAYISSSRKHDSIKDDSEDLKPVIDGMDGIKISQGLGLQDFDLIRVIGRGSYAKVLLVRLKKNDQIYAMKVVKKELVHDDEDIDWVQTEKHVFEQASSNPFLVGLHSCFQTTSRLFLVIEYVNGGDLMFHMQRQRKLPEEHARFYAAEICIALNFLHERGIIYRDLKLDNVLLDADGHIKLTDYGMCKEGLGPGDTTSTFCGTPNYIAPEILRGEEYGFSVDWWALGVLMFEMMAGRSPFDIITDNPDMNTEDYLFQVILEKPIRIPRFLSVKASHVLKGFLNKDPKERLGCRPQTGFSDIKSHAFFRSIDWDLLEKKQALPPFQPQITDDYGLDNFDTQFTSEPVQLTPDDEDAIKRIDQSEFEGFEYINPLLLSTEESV

[3] = target: Serine/threonine-protein kinase PAK 4 (Homo sapiens) (UniProt O96013); test: Inhibition of human PAK4 assessed as residual activity at 1 uM relative to control
[4] = target: Mitogen-activated protein kinase 9 (Homo sapiens) (UniProt P45984); test: Inhibition of human JNK2 assessed as residual activity at 10 uM relative to control
[5] = target: T2, Protein kinase C zeta type (Homo sapiens); test: Inhibition of human PKCzeta assessed as residual activity at 1 uM relative to control
[6] = target: T3, Serine/threonine-protein kinase Nek2 (Homo sapiens) (UniProt P51955); test: Inhibition of human NEK2alpha assessed as residual activity at 10 uM relative to control
T3 sequence (whole entry): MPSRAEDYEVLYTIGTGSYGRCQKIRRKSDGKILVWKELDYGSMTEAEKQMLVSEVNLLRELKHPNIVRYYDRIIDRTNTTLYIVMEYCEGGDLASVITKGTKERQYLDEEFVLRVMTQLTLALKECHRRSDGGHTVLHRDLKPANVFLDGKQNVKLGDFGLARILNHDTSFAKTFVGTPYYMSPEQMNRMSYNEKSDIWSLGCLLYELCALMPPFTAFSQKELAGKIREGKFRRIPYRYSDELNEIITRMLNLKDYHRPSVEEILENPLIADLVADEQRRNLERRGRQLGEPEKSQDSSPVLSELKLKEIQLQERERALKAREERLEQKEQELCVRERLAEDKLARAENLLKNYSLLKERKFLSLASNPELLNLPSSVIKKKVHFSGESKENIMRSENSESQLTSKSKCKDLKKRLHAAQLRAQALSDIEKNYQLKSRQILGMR

[7] = target: Casein kinase I isoform delta (Rattus norvegicus) (UniProt Q06486); test: Inhibition of rat CK1delta assessed as residual activity at 1 uM relative to control
[8] = target: T4, MAP kinase-activated protein kinase 5 (Homo sapiens) (UniProt Q8IW41); test: Inhibition of human PRAK assessed as residual activity at 1 uM relative to control
T4 sequence (whole entry): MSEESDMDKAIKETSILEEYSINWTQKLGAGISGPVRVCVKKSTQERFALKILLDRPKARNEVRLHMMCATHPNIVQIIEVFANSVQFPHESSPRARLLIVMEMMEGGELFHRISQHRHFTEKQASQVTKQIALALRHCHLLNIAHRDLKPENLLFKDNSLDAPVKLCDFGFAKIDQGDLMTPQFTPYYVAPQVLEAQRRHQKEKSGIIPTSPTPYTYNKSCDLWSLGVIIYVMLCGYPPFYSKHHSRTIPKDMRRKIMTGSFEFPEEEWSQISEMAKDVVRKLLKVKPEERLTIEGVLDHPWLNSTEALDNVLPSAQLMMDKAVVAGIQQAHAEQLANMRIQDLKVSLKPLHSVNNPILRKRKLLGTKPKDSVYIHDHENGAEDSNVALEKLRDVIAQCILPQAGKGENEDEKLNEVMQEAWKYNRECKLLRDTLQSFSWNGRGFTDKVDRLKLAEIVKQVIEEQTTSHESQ

[9] = target: Ribosomal protein S6 kinase alpha-3 (Homo sapiens) (UniProt P51812); test: Inhibition of human RSK2 assessed as residual activity at 10 uM relative to control
[10] = target: Serine/threonine-protein kinase Nek6 (Homo sapiens) (UniProt Q9HC98); test: Inhibition of human NEK6 assessed as residual activity at 10 uM relative to control
Chain of Serine/threonine-protein kinase Nek6 (Homo sapiens) (Q9HC98 whole entry): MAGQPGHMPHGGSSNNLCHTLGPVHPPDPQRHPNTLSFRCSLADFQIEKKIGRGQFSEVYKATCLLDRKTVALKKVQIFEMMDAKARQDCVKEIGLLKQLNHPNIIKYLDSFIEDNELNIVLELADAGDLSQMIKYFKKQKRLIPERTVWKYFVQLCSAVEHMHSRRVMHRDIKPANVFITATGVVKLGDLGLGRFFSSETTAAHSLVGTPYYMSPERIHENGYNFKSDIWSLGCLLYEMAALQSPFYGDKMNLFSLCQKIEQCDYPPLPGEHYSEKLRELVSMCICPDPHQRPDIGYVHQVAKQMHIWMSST

Chain of Ribosomal protein S6 kinase alpha-3 (Homo sapiens) (P51812 whole entry): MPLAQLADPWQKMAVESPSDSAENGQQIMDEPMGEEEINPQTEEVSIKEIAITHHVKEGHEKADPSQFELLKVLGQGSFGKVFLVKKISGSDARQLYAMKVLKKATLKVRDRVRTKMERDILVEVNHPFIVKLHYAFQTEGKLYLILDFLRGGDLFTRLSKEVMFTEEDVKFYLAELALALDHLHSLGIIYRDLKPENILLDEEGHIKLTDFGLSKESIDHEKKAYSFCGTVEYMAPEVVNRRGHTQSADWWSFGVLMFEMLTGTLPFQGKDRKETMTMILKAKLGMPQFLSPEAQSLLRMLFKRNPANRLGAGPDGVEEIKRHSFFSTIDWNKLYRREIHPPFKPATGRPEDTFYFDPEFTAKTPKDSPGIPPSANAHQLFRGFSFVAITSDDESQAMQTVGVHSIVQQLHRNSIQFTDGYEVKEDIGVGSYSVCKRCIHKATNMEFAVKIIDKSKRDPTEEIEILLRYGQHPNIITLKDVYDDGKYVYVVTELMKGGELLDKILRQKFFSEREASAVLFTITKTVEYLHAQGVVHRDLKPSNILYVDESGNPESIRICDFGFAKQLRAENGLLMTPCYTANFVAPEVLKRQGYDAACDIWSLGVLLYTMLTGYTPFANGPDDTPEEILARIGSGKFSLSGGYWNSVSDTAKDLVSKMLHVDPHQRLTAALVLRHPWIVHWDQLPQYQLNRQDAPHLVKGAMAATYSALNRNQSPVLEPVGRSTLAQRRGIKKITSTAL
Chain of Mitogen-activated protein kinase 9 (Homo sapiens) (P45984 whole entry, looked up): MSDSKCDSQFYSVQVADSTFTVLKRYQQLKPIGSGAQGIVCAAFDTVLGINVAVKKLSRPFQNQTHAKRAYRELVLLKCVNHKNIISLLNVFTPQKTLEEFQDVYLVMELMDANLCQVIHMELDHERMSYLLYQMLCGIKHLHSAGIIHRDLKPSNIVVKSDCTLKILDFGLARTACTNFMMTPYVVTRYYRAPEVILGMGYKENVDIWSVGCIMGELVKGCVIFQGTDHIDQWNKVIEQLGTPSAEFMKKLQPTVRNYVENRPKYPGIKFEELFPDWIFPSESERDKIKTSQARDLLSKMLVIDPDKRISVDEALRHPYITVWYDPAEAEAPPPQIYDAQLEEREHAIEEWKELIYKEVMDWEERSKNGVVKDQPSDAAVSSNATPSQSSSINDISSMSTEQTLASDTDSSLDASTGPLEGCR
Chain of Serine/threonine-protein kinase PAK 4 (Homo sapiens) (O96013 whole entry, looked up): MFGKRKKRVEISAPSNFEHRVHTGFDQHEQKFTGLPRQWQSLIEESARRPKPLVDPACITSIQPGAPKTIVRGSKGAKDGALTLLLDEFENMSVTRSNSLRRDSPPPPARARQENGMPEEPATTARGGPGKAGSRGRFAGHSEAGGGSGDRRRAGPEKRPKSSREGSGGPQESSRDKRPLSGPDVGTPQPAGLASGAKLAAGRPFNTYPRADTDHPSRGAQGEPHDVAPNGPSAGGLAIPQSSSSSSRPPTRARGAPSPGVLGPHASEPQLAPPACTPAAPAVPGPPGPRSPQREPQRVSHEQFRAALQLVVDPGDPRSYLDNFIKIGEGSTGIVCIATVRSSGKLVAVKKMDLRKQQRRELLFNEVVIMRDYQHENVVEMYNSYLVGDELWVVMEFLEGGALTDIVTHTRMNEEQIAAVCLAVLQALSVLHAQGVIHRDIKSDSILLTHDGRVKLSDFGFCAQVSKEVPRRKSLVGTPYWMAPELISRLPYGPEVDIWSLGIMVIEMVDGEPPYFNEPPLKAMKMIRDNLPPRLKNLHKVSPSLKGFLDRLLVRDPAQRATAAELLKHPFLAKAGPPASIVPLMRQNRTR
Chain of Casein kinase I isoform delta (Rattus norvegicus) (Q06486 whole entry, looked up, canonical isoform): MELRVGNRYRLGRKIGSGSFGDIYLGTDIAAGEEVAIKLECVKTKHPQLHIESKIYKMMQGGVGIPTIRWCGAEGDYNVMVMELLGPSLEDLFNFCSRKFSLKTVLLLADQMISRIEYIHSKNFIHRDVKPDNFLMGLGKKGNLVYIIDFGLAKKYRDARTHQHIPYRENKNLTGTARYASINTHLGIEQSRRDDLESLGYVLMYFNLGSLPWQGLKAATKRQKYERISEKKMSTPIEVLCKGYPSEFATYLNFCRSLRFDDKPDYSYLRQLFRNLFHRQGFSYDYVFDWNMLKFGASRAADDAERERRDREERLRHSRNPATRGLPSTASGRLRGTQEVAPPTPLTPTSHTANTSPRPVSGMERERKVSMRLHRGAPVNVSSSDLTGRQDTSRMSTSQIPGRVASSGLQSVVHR

SMILES | Activity [1] [%] | Activity [2] [%] | Activity [3] [%] | Activity [4] [%] | Activity [5] [%] | Activity [6] [%] | Activity [7] [%] | Activity [8] [%] | Activity [9] [%] | Activity [10] [%]
CCCC(=O)Nc1n[nH]c2ncc(-c3cccnc3)cc12 | 82 | 77 | 89 | 88 | 84 | 90 | 73 | 82 | 87 | 90
CC(=O)Nc1nccc(-c2c(-c3ccccc3)noc2C)n1 | 105 | 82 | 115 | 23.4 | 93.7 | 82.7 | 44.4 | 82.4 | 103 | 78.8
CC(=O)Nc1cccc(-c2cnc3[nH]nc(C)c3c2)c1 | 4.34 | 84.2 | 71.2 | 70.9 | 120 | 10.5 | 32.7 | 94.5 | 78.3 | 94.3
